Laboratory results taken from publication PMC4856769 (Cell Research, 2016).

Target: T1, YEATS domain of YEATS2 (YEATS2 201-332) (Homo sapiens, UniProt Q9ULM3)
T1 sequence (Q9ULM3 201-332): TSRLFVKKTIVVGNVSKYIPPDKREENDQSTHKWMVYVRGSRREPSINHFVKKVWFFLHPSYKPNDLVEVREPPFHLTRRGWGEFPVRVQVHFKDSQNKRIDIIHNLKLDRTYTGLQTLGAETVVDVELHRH
Assay: ITC binding of histone peptides to the YEATS domain of YEATS2

binding (in words) (ITC, 15°C, wild type YEATS2 201-332) | Compound | Kd [µM]
No binding | ARTKQT ARKST GGK(cr)APRKQLATKAA [H31-25K14cr] | –
– | C/C=C/C(=O)NCCCC[C@H](NC(=O)[C@@H](NC(=O)[C@H](CCCNC(=N)N)NC(=O)[C@H](C)N)[C@@H](C)O)C(=O)N[C@@H](CCC(N)=O)C(=O)N[C@H](C(=O)N[C@@H](C)C(=O)N[C@@H](CCCNC(=N)N)C(=O)N[C@@H](CCCCN)C(=O)N[C@@H](CO)C(=O)N[C@H](C(=O)NCC(=O)NCC(=O)N[C@@H](CCCCN)C(=O)N[C@@H](C)C(=O)O)[C@@H](C)O)[C@@H](C)O [H31-15K4cr] | 121
